In series [1] the test system is red blood cells. Description: Lytic activity of QS21 alone versus QS21 in the Inflexal V formulation against red blood cells, OD at 540 nm. Particulars: equivalent of 2.5 μg QS21 in 900 μl PBS pH 7.4 + 100 μl red blood cells, 30 minutes at RT. Type of series: cell-based. The method, then:
500 μl Inflexal V® vaccine, has been adjuvanted by the addition of 50 μg QS21. The resulting composition of this mixture is: +/−117 μg of Lecithin, 45 μg HA, 50 μg QS21 in 525 μl. The lytic activity of QS21 in this formulation has been compared to the lytic activity of QS21 alone.
Practically, a volume of the formulation “Inflexal V+QS21” containing the equivalent of 2.5 μg of QS21 is added to PBS pH 7.4 to reach a final volume of 900 μl. In parallel, 2.5 μg QS21 is taken and also diluted to 900 μl with PBS.
100 μl of red blood cells (10× diluted) are added to those 2 samples as described above. Samples are let for 30 minutes at RT. After centrifugation at 2000 rpm, the OD of the supernatant is red at 540 nm.

Series [2] concerns red blood cells. Particulars: OD at 540 nm.
The conditions of series [3]: QS21 injected parenterally as a free molecule; cited from earlier work.

Read-outs that look alike come from different tables or passages of the source.

With QS21, the OD was 1.63 in the series on red blood cells [1], 0.217 in the series with red blood cells [2] (1 μg QS21), 0.631 in the series on red blood cells [2] (1.5 μg QS21) and 0.891 in the series with red blood cells [2] (2.5 μg QS21). Besides, the injection site observation result in series [3] was “necrosis”.
